Measurements reported in patent US7915302B2, “Crystal forms of pyrrolylheptanoic acid derivatives” (Dong-A Pharm. Co., Ltd., priority 2007, dated 2011).

Assay: Stability Identification-Content Measurement (HPLC content after storage in HDPE bottle)
Format: physicochemical
Experimental: 80 mg of the novel crystalline form of the compound prepared in Example 2 and 80 mg of a standard product with a purity of 99.9% prepared by the process described in Example 2 were accurately weighed, placed in 100 ml volumetric flasks, and dissolved in dimethylformamide. The volumes of the solutions were adjusted to the marked lines of the flasks to prepare test solutions and standard solutions, respectively. Each of the solutions was analyzed by column chromatography under the following conditions: • Column: Zorbax Rx C8 (4.6 mm×250 mm, 5 μm) or its equivalent • Mobile Phase (0.05 M ammonium acetate buffer (pH=5.0)/acetonitrile/tetrahydrofuran) Mobile Phase A: • 0.05 M ammonium acetate buffer (pH=5.0)/acetonitrile/tetrahydrofuran (67/21/12) Mobile Phase B: • 0.05M ammonium acetate buffer (pH=5.0)/acetonitrile/tetrahydrofuran (54/34/12) • Detector: UV absorption spectrophotometer (wavelength: 244 nm) • Flow Rate: 1.0 mL/min. • Column Temperature: 35±2° C. • Storage: in HDPE bottle
The contents of the compound prepared in Example 2 were quantified by the area under each peak. Variations in the content of the compound were evaluated at room temperature, in a freezer, under accelerated storage conditions and under extreme storage conditions over the periods indicated in Table 6, and the results are shown in Table 6.

## [R—(R*,R*)]-2-(4-fluorophenyl)-β,δ-dihydroxy-5-(1-methylethyl)-3-phenyl-4-[(phenylamino)carbonyl]-1H-pyrrole-1-heptanoic acid hemicalcium salt [Example 2]
40° C./75% RH (accelerated storage), 1 month
  content of the compound: 98.82%
40° C./75% RH (accelerated storage), 2 months
  content of the compound: 98.33%
40° C./75% RH (accelerated storage), 3 months
  content of the compound: 98.03%
60° C./Dry (extreme storage), 1 month
  content of the compound: 98.01%
At room temp., 1 month
  content of the compound: 98.72%
At room temp., 2 months
  content of the compound: 98.58%
At room temp., 3 months
  content of the compound: 98.12%
At room temp., 6 months
  content of the compound: 98.56%
In freezer, 1 month
  content of the compound: 99.74%
In freezer, 2 months
  content of the compound: 99.31%
In freezer, 3 months
  content of the compound: 100.19%
In freezer, 6 months
  content of the compound: 98.11%
